Structures can show the parent of a compound that is named as a salt.
Test: Dissolution testing of the bi-layered tablet (USP I, baskets, 0.01 N HCl)
Assay type: physicochemical
Conditions: 500 mL 0.01 N HCl, 37° C., 100 rpm, average of six tablets
[1] = Time 2 hr, sustained release layer
[2] = Time 4 hr, sustained release layer
[3] = Time 8 hr, sustained release layer

Procedure: Place 500 mL (+/−5 mL) of 0.01 N HCl in each vessel of the dissolution apparatus (USP I, baskets). Allow media to equilibrate to 37° C.+/−0.5° C. […] Select 6 tablets at random and record weight of each tablet. […] Put one tablet into each basket. Turn dissolution apparatus on to a rate of 100 rpm. […] Withdraw samples through a 45 μm porous polyethylene filter disc (Whatman GE/X or Millipore Millex-GN) at 45 minutes, 2, 4 and 8 hours. […] Inject filtered samples into a gas chromatograph, injecting one standard (as used for calibration) after every six samples. Gas Chromatography: Instrument: Waters Alliance 2695 Separation Module Column: Waters μBondapak C18 Column, 10 μm, 3.9×300 mm; PN WAT027324 Column Temperature: 52° C. Flow Rate: 1.8 mL per minute Injection Volume: 200 μL Detector: UV at 257 nm Mobile Phase: A: Methanol • B: Pic-B8 (for every liter of Pic-B8 aqueous solution, dissolve 2.164 g of 1-octanesulfonic acid sodium salt in water and add 20 mL of glacial acetic acid) [table]

Row | Compound | Average Amount Released [%] [1] | Average Amount Released [%] [2] | Average Amount Released [%] [3] | Average Amount Released [%] (Time 45 min, immediate release layer)
1 | CNC[C@H](O)c1cccc(O)c1 [PEH, Phenylephrine HCl] | 43.6% | 65.8% | 89.0% | –
2 | Methscopolamine Nitrate [MSPN] | – | – | – | 100.2%
3 | CN(C)CCC(c1ccc(Cl)cc1)c1ccccn1 (stereo not shown) [CPM, Chlorpheniramine Maleate] | 33.3% | 57.1% | 87.0% | –

Source: patent US20080292699A1, “SOLID PHARMACEUTICAL DOSAGE UNIT FOR A[…] OF RHINORRHEA” (SOVEREIGN PHARMACEUTICALS, LTD., priority 2007, published 2008)
